± gives the expanded uncertainty stated by the source.
Assay: compressibility factor (dimensionless); xn = mol fraction of the nth substance listed
Conditions: Liquid, Burnett expansion method

SMILES: [N-]=[N+]=O [nitrous oxide] + FC(F)F
- compressibility factor (323.44 K, 385.6 kPa, x1 = 0.358): 0.9809 ± 0.0001
- compressibility factor (323.44 K, 527.1 kPa, x1 = 0.6428): 0.9764 ± 0.0001
- compressibility factor (323.44 K, 562.3 kPa, x1 = 0.7792): 0.9759 ± 0.0001
- compressibility factor (323.44 K, 571.6 kPa, x1 = 0.358): 0.972 ± 0.0001
- compressibility factor (323.44 K, 779.5 kPa, x1 = 0.6428): 0.9653 ± 0.0001
- compressibility factor (323.44 K, 831.2 kPa, x1 = 0.7792): 0.9642 ± 0.0001
- compressibility factor (323.44 K, 843.2 kPa, x1 = 0.358): 0.9583 ± 0.0001
- compressibility factor (323.44 K, 1145.9 kPa, x1 = 0.6428): 0.9485 ± 0.0001
- compressibility factor (323.44 K, 1221 kPa, x1 = 0.7792): 0.9467 ± 0.0001
- compressibility factor (323.44 K, 1235.2 kPa, x1 = 0.358): 0.9384 ± 0.0001
- compressibility factor (323.44 K, 1669.1 kPa, x1 = 0.6428): 0.9234 ± 0.0001
- compressibility factor (323.44 K, 1777.2 kPa, x1 = 0.7792): 0.921 ± 0.0001
- compressibility factor (323.44 K, 1790.3 kPa, x1 = 0.358): 0.9091 ± 0.0001
- compressibility factor (323.44 K, 2399.2 kPa, x1 = 0.6428): 0.8872 ± 0.0001
- compressibility factor (323.44 K, 2551 kPa, x1 = 0.7792): 0.8837 ± 0.0001
- compressibility factor (323.44 K, 2553.4 kPa, x1 = 0.358): 0.8666 ± 0.0001
- compressibility factor (323.44 K, 3379.9 kPa, x1 = 0.6428): 0.8354 ± 0.0001
- compressibility factor (323.44 K, 3557 kPa, x1 = 0.358): 0.8069 ± 0.0001
- compressibility factor (323.44 K, 3585.4 kPa, x1 = 0.7792): 0.8302 ± 0.0001
- compressibility factor (343.87 K, 201 kPa, x1 = 0.7837): 0.9917 ± 0.0001
- compressibility factor (343.87 K, 299.8 kPa, x1 = 0.7837): 0.9888 ± 0.0001
- compressibility factor (343.87 K, 446.5 kPa, x1 = 0.7837): 0.9842 ± 0.0001
- compressibility factor (343.87 K, 663 kPa, x1 = 0.7837): 0.9769 ± 0.0001
- compressibility factor (343.87 K, 980.8 kPa, x1 = 0.7837): 0.966 ± 0.0001
- compressibility factor (343.87 K, 1442.6 kPa, x1 = 0.7837): 0.9497 ± 0.0001
- compressibility factor (343.87 K, 2103.1 kPa, x1 = 0.7837): 0.9254 ± 0.0001
- compressibility factor (343.87 K, 3026.4 kPa, x1 = 0.7837): 0.8901 ± 0.0001
- compressibility factor (343.87 K, 4273 kPa, x1 = 0.7837): 0.8401 ± 0.0001
- compressibility factor (343.95 K, 79.8 kPa, x1 = 0.6698): 0.9965 ± 0.0001
- compressibility factor (343.95 K, 90.5 kPa, x1 = 0.2403): 0.991 ± 0.0002
- compressibility factor (343.95 K, 92.3 kPa, x1 = 0.4174): 0.9925 ± 0.0001
- compressibility factor (343.95 K, 119.5 kPa, x1 = 0.6698): 0.9953 ± 0.0001
- compressibility factor (343.95 K, 128.4 kPa, x1 = 0.536): 0.9933 ± 0.0001
- compressibility factor (343.95 K, 135.6 kPa, x1 = 0.2403): 0.991 ± 0.0002
- compressibility factor (343.95 K, 138.2 kPa, x1 = 0.4174): 0.9917 ± 0.0001
- compressibility factor (343.95 K, 178.9 kPa, x1 = 0.6698): 0.9945 ± 0.0001
- compressibility factor (343.95 K, 192 kPa, x1 = 0.536): 0.9915 ± 0.0001
- compressibility factor (343.95 K, 202.9 kPa, x1 = 0.2403): 0.9897 ± 0.0002
- compressibility factor (343.95 K, 206.8 kPa, x1 = 0.4174): 0.9901 ± 0.0001
- compressibility factor (343.95 K, 266.9 kPa, x1 = 0.6698): 0.9901 ± 0.0001
- compressibility factor (343.95 K, 287 kPa, x1 = 0.536): 0.9886 ± 0.0001
- compressibility factor (343.95 K, 303.2 kPa, x1 = 0.2403): 0.9866 ± 0.0002
- compressibility factor (343.95 K, 308.9 kPa, x1 = 0.4174): 0.9871 ± 0.0001
- compressibility factor (343.95 K, 398.2 kPa, x1 = 0.6698): 0.9857 ± 0.0001
- compressibility factor (343.95 K, 428 kPa, x1 = 0.536): 0.9839 ± 0.0001
- compressibility factor (343.95 K, 451.8 kPa, x1 = 0.2403): 0.9812 ± 0.0002
- compressibility factor (343.95 K, 460.6 kPa, x1 = 0.4174): 0.9821 ± 0.0001
- compressibility factor (343.95 K, 592.7 kPa, x1 = 0.6698): 0.9789 ± 0.0001
- compressibility factor (343.95 K, 636.6 kPa, x1 = 0.536): 0.9767 ± 0.0001
- compressibility factor (343.95 K, 671.3 kPa, x1 = 0.2403): 0.9728 ± 0.0002
- compressibility factor (343.95 K, 684.7 kPa, x1 = 0.4174): 0.9741 ± 0.0001
- compressibility factor (343.95 K, 879 kPa, x1 = 0.6698): 0.9688 ± 0.0001
- compressibility factor (343.95 K, 943.2 kPa, x1 = 0.536): 0.9656 ± 0.0001
- compressibility factor (343.95 K, 992.7 kPa, x1 = 0.2403): 0.9599 ± 0.0002
- compressibility factor (343.95 K, 1013 kPa, x1 = 0.4174): 0.9617 ± 0.0001
- compressibility factor (343.95 K, 1296.6 kPa, x1 = 0.6698): 0.9537 ± 0.0001
- compressibility factor (343.95 K, 1389 kPa, x1 = 0.536): 0.9489 ± 0.0001
- compressibility factor (343.95 K, 1457.5 kPa, x1 = 0.2403): 0.9405 ± 0.0002
- compressibility factor (343.95 K, 1488.7 kPa, x1 = 0.4174): 0.9431 ± 0.0001
- compressibility factor (343.95 K, 1897.6 kPa, x1 = 0.6698): 0.9313 ± 0.0001
- compressibility factor (343.95 K, 2027.4 kPa, x1 = 0.536): 0.9241 ± 0.0001
- compressibility factor (343.95 K, 2117.9 kPa, x1 = 0.2403): 0.9119 ± 0.0002
- compressibility factor (343.95 K, 2166.3 kPa, x1 = 0.4174): 0.9157 ± 0.0001
- compressibility factor (343.95 K, 2743.8 kPa, x1 = 0.6698): 0.8986 ± 0.0001
- compressibility factor (343.95 K, 2920 kPa, x1 = 0.536): 0.8882 ± 0.0001
- compressibility factor (343.95 K, 3030.8 kPa, x1 = 0.2403): 0.8708 ± 0.0001
- compressibility factor (343.95 K, 3105.8 kPa, x1 = 0.4174): 0.8761 ± 0.0001
- compressibility factor (343.95 K, 3898.2 kPa, x1 = 0.6698): 0.8519 ± 0.0001
- compressibility factor (343.95 K, 4125.5 kPa, x1 = 0.536): 0.8374 ± 0.0001
- compressibility factor (343.95 K, 4242.9 kPa, x1 = 0.2403): 0.8135 ± 0.0001
- compressibility factor (343.95 K, 4359.1 kPa, x1 = 0.4174): 0.8205 ± 0.0001

Source: the NIST ThermoML archive (doi:10.1007/s10765-006-0082-x)
